Here are results for twelve compounds from ChEMBL document CHEMBL4477230, “Cytotoxic effect of levoglucosenone and related derivatives against human hepatocarcinoma cell lines” (Bioorg Med Chem Lett, 2016).

What all share (assay type): functional, cell-based
In assay [1] the test system is Huh-7. In words: Cytotoxicity against human HuH7 cells assessed as reduction in cell growth after 48 hrs by MTT assay. For orientation: Tetrazolium dyes change colour on reduction, which living cells bring about.
For assay [2], the system named is HepG2. The experiment in a line: Cytotoxicity against human HepG2 cells assessed as reduction in cell growth after 48 hrs by MTT assay.
Assay [3] concerns Huh-7. In words: Cytotoxicity against human HuH7 cells assessed as reduction in cell growth after 48 hrs by MTS assay. The following applies: Huh-7, 48 h.
The subject of assay [4] is HepG2. In words: Cytotoxicity against human HepG2 cells assessed as reduction in cell growth after 48 hrs by MTS assay. The following applies: HepG2, 48 h.
The mark [5] stands for this setting: Homo sapiens, Huh-7, 48 h, read-out: IC50.
Setting [6] is: Homo sapiens, HepG2, 48 h, read-out: IC50.

The term IC50 denotes the concentration at which inhibition is half-maximal. For `O=C1C=C[C@H]2CO[C@@H]1O2`, the IC50 amounted to 12.9 µM with Huh-7 [1] (setting [5]) and 39.4 µM in the assay on HepG2 [2] (setting [6]).
Consider `CCCCCCS[C@H]1CC(=O)[C@@H]2OC[C@H]1O2`, for which the IC50 result in the assay with Huh-7 [1] (huh-7) and with HepG2 [2] (hepg2) was “Not Active” each time.
In the case of `Cc1ccc(S[C@H]2CC(=O)[C@@H]3OC[C@H]2O3)cc1`, the IC50 was 12.8 µM in the assay on Huh-7 [1] (setting [5]) and 27.5 µM with HepG2 [2] (setting [6]).
The corresponding values for `O=C1C[C@H](n2c(=O)oc3ccccc32)[C@H]2CO[C@@H]1O2` are 8.79 µM and 22.2 µM.
As to `O=C1C(Br)=C[C@H]2CO[C@@H]1O2`, the IC50 in the assay on Huh-7 [1] (setting [5]) is 4.68 µM; in the assay with HepG2 [2] (setting [6]) it was 14 µM.
On to `CCCCS[C@H]1CC(=O)[C@@H]2OC[C@H]1O2`, for which the half-maximal inhibitory concentration (IC50) entry with Huh-7 [1] (huh-7) and with HepG2 [2] (hepg2) was “Not Active” throughout.
For the compound `Cc1ccc(S[C@H]2CC(O)[C@@H]3OC[C@H]2O3)cc1` (some centres undefined), the IC50 entry in the assay with Huh-7 [1] (huh-7) and in the assay on HepG2 [2] (hepg2) was “Not Active” in each case.
Turning to `CCCCS[C@H]1CC(O)[C@@H]2OC[C@H]1O2` (some centres undefined), the concentration for half-maximal inhibition (IC50) result in the assay on Huh-7 [1] (huh-7) and in the assay on HepG2 [2] (hepg2) was “Not Active” throughout.
For `O=C1C[C@H](Sc2ccccc2)[C@H]2CO[C@@H]1O2`, the IC50 in the assay with Huh-7 [1] (setting [5]) came to 11 µM; in the assay with HepG2 [2] (setting [6]), 17 µM.
Taken in the same sequence, the figures for `COc1cccc2c1C(=O)c1c(O)c3c(c(O)c1C2=O)C[C@@](O)(C(=O)CO)C[C@@H]3O[C@H]1C[C@H](N)[C@H](O)[C@H](C)O1` [DOXORUBICIN] were 0.24 µM and 0.68 µM.
Taken in the same sequence, the figures for `O=c1[nH]cc(F)c(=O)[nH]1` [FLUOROURACIL] were 390 µM and 205 µM.
Regarding `CNC(=O)c1cc(Oc2ccc(NC(=O)Nc3ccc(Cl)c(C(F)(F)F)c3)cc2)ccn1` [SORAFENIB], the 50% inhibitory concentration (IC50) was 11.3 µM in the assay on Huh-7 [3] and 12 µM with HepG2 [4].
